According to patent publication US20240173363A1, “MICROBIOME COMPOSITION OF HALOPHILIC BACILLUS VELEZENSIS KMU01 STRAIN FERMENTED CULTURE SUPERNATANT WITH ANTI-OBESITY EFFECT” (KOOKMINBIO, CORP., priority 2022, published 2024):

Test system: C57BL/6J mice
Experiment: Biochemical analysis of blood (plasma)
Format: in vivo
Details: HFD mice
Description: When brought in, the animal was inspected and weighed. […] Xenical was used as a positive control. […] Blood glucose, AST, ALT, and BUN were measured using a chemical analyzer (Fuji DRI-CHEM 3500i, Fuji Photo Film, Ltd., Tokyo, Japan), total cholesterol and high density lipoprotein (HDL)-cholesterol (hereinafter referred to as HDL-C) were measured using a LabAssay™ Cholesterol kit (Wako, Osaka, Japan), and a low-density lipoprotein (LDL)-cholesterol (hereinafter referred to as LDL-C) was calculated using the following Equation 2. In addition, TG was analyzed using TG assay kits (Abcam, Cambridge, MA), respectively. LDL-C=Total cholesterol−{(HDL-C)+(TG/5)} [EQUATION 2]

CCCCCCCCCCC[C@@H](C[C@@H]1OC(=O)[C@H]1CCCCCC)OC(=O)[C@H](CC(C)C)NC=O [Xen]
blood TG compared to the high-fat diet group (Xenical 50 mg/kg/day, 13 weeks, p<0.05): significantly reduced
LDL-C (plasma, 13 weeks oral, calculated by Equation 2, mean ± SD): 31.55 ± 17.44 mg/dL
